Source: PMC12383145, “Fluorescent Peptides Internalize HeLa Cells and Kill Multidrug-Resistant Clinical Bacterial Isolates” (Antibiotics, 2025)
≈ marks a conversion by molar mass, not a printed value. Where “and” joins values, the source holds several entries; their conditions need not be identical. Equal values may be shown once. Read-outs that look alike come from different tables or passages of the source. Positions of bridges follow the written chain, without caps; N, C: chain ends. Non-standard residues stand in square brackets, D forms with d. Residues, ends and D or L forms follow the SMILES beside them. Chains are numbered I, II in the order given. *: point of attachment. RhodamineB = CCN(CC)c1ccc2c(-c3ccccc3C(=O)*)c3ccc(=[N+](CC)CC)cc-3oc2c1; hPhe = N[C@@H](CCc1ccccc1)C(=O)O; 2Abz = Nc1ccccc1C(=O)O; Ahx = NCCCCCC(=O)O

Assays:
Assay type in all cases: cell-based
E. coli ATCC 25922 = conditions: E. coli ATCC 25922
Procedure: (§1) The minimum inhibitory concentration (MIC) of the peptides was determined by the broth microdilution technique, according to the Clinical and Laboratory Standards Institute (CLSI) guidelines, as previously described. Briefly, bacterial strains were incubated in BHI broth at 37 °C until they reached the exponential growth phase, and inocula were adjusted to 5 × 10^6 CFU/mL using calibration curves. Serial dilutions of the peptides to be evaluated in 96-well plates were made in 90 µL of Mueller Hinton broth at concentrations ranging from 200 to 6.25 µg/mL, and 10 µL of the inoculum adjusted to 5 × 10^6 CFU/mL was added. Finally, the plates were incubated at 37 °C for 24 h, and the absorbance at 620 nm was read. As a negative control, CMH, distilled water, and 10 µL of inoculum were used; for the positive control, vancomycin was used for Gram-positive strains and ciprofloxacin for Gram-negative strains at the MICs dictated by the CLSI; as a technical control, CMH with peptone water was used, and for the growth control, CMH was used with 10 µL of inoculum.
(§2) To determine the minimum bactericidal concentration (MBC), the 96-well plates where the MIC was determined were used as a starting point. From these, an aliquot of the controls and those wells where no apparent bacterial growth was observed were spotted onto trypticase soy agar plates. The plates were incubated at 37 °C for 24 h, and the reading was taken, identifying the lowest concentration of the peptide where there was no bacterial growth as the MBC.

E. faecalis ATCC 29212 = conditions: E. faecalis ATCC 29212
Procedure: as §1, §2

[1] = test system: K. pneumoniae ATCC 700603; conditions: K. pneumoniae ATCC 700603
Procedure: as §1, §2

P. aeruginosa ATCC 27853 = conditions: P. aeruginosa ATCC 27853
Procedure: as §1, §2

S. aureus ATCC 25923 = conditions: S. aureus ATCC 25923
Procedure: as §1, §2

[2] = test system: S. aureus clinical isolate 11719; conditions: S. aureus clinical isolate 11719
[3] = test system: E. coli clinical isolate 1004 (susceptible); conditions: E. coli clinical isolate 1004
Procedure: (§3) E. coli isolates 1004 (susceptible), 129797 (resistant), and 301755 (MDR) were selected for evaluation. Isolate 1004 was sensitive to all antibiotics tested. […] These findings identify it as a multidrug-resistant (MDR) strain and an extended-spectrum beta-lactamase (ESBL)-producing bacterium. For S. aureus, isolates 109095, 117719, and 124653 were evaluated. All three were resistant to penicillin, indicating beta-lactamase production mediated by the blaZ gene. Studies have shown that up to 90% of S. aureus isolates worldwide are penicillin-resistant, which implies that this antibiotic is ineffective in infections caused by this pathogen. […] Isolate 124653 was resistant to penicillin, tetracycline, and erythromycin, with the latter belonging to the group of macrolides, antibiotics that inhibit protein synthesis through interaction with the 50S […] subunit. For E. faecalis three isolates were selected: strains 213 (sensitive to all the antibiotics tested), strain 82 (resistant to streptomycin), and strain 179 (resistant to gentamicin). These clinical isolates were selected to assess the antimicrobial activity of the peptide RWQWRWQWR and its analogues conjugated to fluorescent molecules in strains against strains with susceptibility profiles.
(§4) The analysis of synthesized peptides in ATCC reference strains and susceptible, resistant, and multidrug-resistant (MDR) clinical isolates was performed. The clinical isolates were obtained from the National Cancer Institute collection and were previously identified and antibiogrammed using the VITEK system. Additionally, the strains were characterized by MALDI-TOF. The strains were re-primed onto trypticase soy agar and subsequently preserved in Brain–Heart Infusion (BHI) broth containing 20% glycerol. For the MIC and MBC assays, the strains were reactivated and cultured in BHI until they reached their exponential growth phase.
as §1, §2

[4] = test system: E. coli clinical isolate 129797 (resistant); conditions: E. coli clinical isolate 129797
Procedure: as §3, §4, §1, §2

[5] = test system: E. coli clinical isolate 301755 (MDR); conditions: E. coli clinical isolate 301755
Procedure: as §3, §4, §1, §2

[6] = test system: E. faecalis clinical isolate 179; conditions: E. faecalis clinical isolate 179
Procedure: as §3, §4, §1, §2

[7] = test system: E. faecalis clinical isolate 213; conditions: E. faecalis clinical isolate 213
Procedure: as §3, §4, §1, §2

[8] = test system: E. faecalis clinical isolate 82; conditions: E. faecalis clinical isolate 82
Procedure: as §3, §4, §1, §2

[9] = test system: S. aureus clinical isolate 109095; conditions: S. aureus clinical isolate 109095
Procedure: as §3, §4, §1, §2

[10] = test system: S. aureus clinical isolate 124653; conditions: S. aureus clinical isolate 124653
Procedure: as §3, §4, §1, §2

[11] = test system: clinical isolates of E. faecalis; conditions: stated for the E. faecalis clinical isolates together
Procedure: as §3, with “For E. faecalis three isolates were selected: strains 213 (sensitive to all the antibiotics tested), strain 82 (resistant to streptomycin), and strain 179 (resistant to gentamicin). These clinical isolates were selected to assess the antimicrobial activity of the peptide RWQWRWQWR and its analogues conjugated to fluorescent molecules in strains against strains with susceptibility profiles.” left out
The minimum inhibitory concentration (MIC) of the peptides was determined by the broth microdilution technique, according to the Clinical and Laboratory Standards Institute (CLSI) guidelines, as previously described. […] Serial dilutions of the peptides to be evaluated in 96-well plates were made in 90 µL of Mueller Hinton broth at concentrations ranging from 200 to 6.25 µg/mL, and 10 µL of the inoculum adjusted to 5 × 10^6 CFU/mL was added. Finally, the plates were incubated at 37 °C for 24 h, and the absorbance at 620 nm was read. […]

[12] = MTT cytotoxicity assay in HeLa cells; conditions: human
Procedure: MTT assays were conducted in HeLa cells to evaluate the effect of fluorescent probe incorporation on the in vitro cytotoxic activity of the parent non-conjugated peptides. The cytotoxic effect of peptides 1, Abz-1 RhB-1, 2, and RhB-2 in HeLa cells was peptide concentration-dependent, with the highest anticancer activity observed at 200 µg/mL. Incorporation of 2-Abz and RhB at the N-terminal end reduced cytotoxic activity, while the binding of 2-Abz at the C-terminal end or FAM at the N-terminal end drastically diminished anticancer activity (Table 4).

Hemolysis assay = assay: Hemolysis assay
Procedure: Whole blood was collected into EDTA tubes and centrifuged at 2500 rpm for 10 min. The plasma and buffy coat were removed, and the erythrocytes were washed three times with 0.9% saline to yield a 4% cell suspension. In 96-well plates, 100 µL of peptide dilutions (6.25–200 µg/mL) were prepared in triplicate, and 100 µL of the erythrocyte suspension was added (final hematocrit 2%). Plates were incubated at 37 °C for 2 h, and then centrifuged again at 2500 rpm for 10 min. A 100 µL aliquot of the supernatant was transferred to a fresh plate, and absorbance was measured at 450 nm. Saline and 1× Triton X-100 served as the negative and positive controls, respectively. Hemolysis (%) was calculated as follows: %hemolysis=treatment absorbance−saline absorbance/1×triton absorbance−saline absorbance

HeLa cells [13] = assay: Fluorescence confocal microscopy, colocalization analysis (ImageJ JaCoP); conditions: 2 h at IC50, colocalization with SMA antibody
Procedure: The possible cellular distribution of the peptides was determined by colocalization analysis of the Rhodamine B fluorescent signal, with fluorophores used to stain the nucleus (Hoechst 33342) and cytoplasm components (SMA antibody). ImageJ 1.54f analysis software and the JaCoP plugin were used to analyze signal colocalization.
HeLa cells (>70% confluence) were seeded on sterile round coverslips in 24-well plates with DMEM + 5% FBS and incubated at 37 °C, 5% CO2 for 24 h. After adhesion, the medium was replaced, and cells were treated with fluorescent peptides at their IC50 for 2 h. Then, cells were washed with PBS under constant stirring (3 × 10 min). Cellular fixation was performed using a solution containing 2% paraformaldehyde and 1% sucrose 100 mM in PBS for 30 min, followed by PBS washes (2 × 10 min). Permeabilization was carried out using a solution of 0.1% Triton X-100 and 20 mM glycine in PBS for 10 min, followed by two additional PBS washes. Blocking was performed with 1% BSA and 20 mM glycine in PBS for 10 min. […] For the fluorescence lecture, 5 µL of Fluoromount mounting medium was applied to the slide, and the coverslip containing the cells was inverted onto the medium. Slides were allowed to be dry-protected from light, and cells were visualized using a Leica DMi8 fluorescence confocal microscope. […]

HeLa cells [14] = assay: Micrographs of cell morphology after peptide treatment; conditions: 100 µg/mL, 2 h, 37 °C
Text: Despite these pronounced morphological alterations, there was no evidence of cell rupture, membrane disintegration, or the presence of cell fragments, indicating the absence of necrotic processes. […] Green arrows indicate normal morphologies, such as cytoplasmic elongations and polygonal shapes. Red arrows indicate morphological changes induced by the peptides, including cell rounding, shrinkage, and loss of cytoplasmic projections. Scale bar: µm. The control corresponds to untreated cells.

## N=C(N)NCCC[C@H](NC(=O)[C@H](Cc1c[nH]c2ccccc12)NC(=O)[C@H](CCC(N)=O)NC(=O)[C@H](Cc1c[nH]c2ccccc12)NC(=O)[C@H](CCCNC(=N)N)NC(=O)[C@H](Cc1c[nH]c2ccccc12)NC(=O)[C@H](CCC(N)=O)NC(=O)[C@H](Cc1c[nH]c2ccccc12)NC(=O)[C@H](CCCNC(=N)N)NC(=O)c1ccccc1N)C(N)=O [Abz-1, (2-Abz)-RWQWRWQWR] (H-[2Abz]RWQWRWQWR-NH2)
E. coli ATCC 25922
  Minimal bactericidal concentration (MBC): 125 µM (≈ 201 µg/mL)
  Minimal inhibitory concentration (MIC): 62 µM (≈ 99.6 µg/mL)
E. faecalis ATCC 29212
  Minimal bactericidal concentration (MBC): 62 µM (≈ 99.6 µg/mL)
  Minimal inhibitory concentration (MIC): 62 µM (≈ 99.6 µg/mL)
[1]
  Minimal bactericidal concentration (MBC): > 125 µM
  Minimal inhibitory concentration (MIC): > 125 µM
P. aeruginosa ATCC 27853
  Minimal bactericidal concentration (MBC): > 125 µM
  Minimal inhibitory concentration (MIC): > 125 µM
S. aureus ATCC 25923
  Minimal bactericidal concentration (MBC): 31 µM (≈ 49.8 µg/mL)
  Minimal inhibitory concentration (MIC): 16 µM (≈ 25.7 µg/mL)
[2]
  Minimal bactericidal concentration (MBC): > 125 µM
  Minimal inhibitory concentration (MIC): 125 µM (≈ 201 µg/mL)
[3]
  Minimal bactericidal concentration (MBC): > 125 µM
  Minimal inhibitory concentration (MIC): > 125 µM
[4]
  Minimal bactericidal concentration (MBC): > 125 µM
  Minimal inhibitory concentration (MIC): > 125 µM
[5]
  Minimal bactericidal concentration (MBC): > 125 µM
  Minimal inhibitory concentration (MIC): > 125 µM
[6]
  Minimal bactericidal concentration (MBC): 62 µM (≈ 99.6 µg/mL)
  Minimal inhibitory concentration (MIC): 31 µM (≈ 49.8 µg/mL)
[7]
  Minimal bactericidal concentration (MBC): 62 µM (≈ 99.6 µg/mL)
  Minimal inhibitory concentration (MIC): 31 µM (≈ 49.8 µg/mL)
[8]
  Minimal bactericidal concentration (MBC): 62 µM (≈ 99.6 µg/mL)
  Minimal inhibitory concentration (MIC): 31 µM (≈ 49.8 µg/mL)
[9]
  Minimal bactericidal concentration (MBC): > 125 µM
  Minimal inhibitory concentration (MIC): 125 µM (≈ 201 µg/mL)
[10]
  Minimal bactericidal concentration (MBC): > 125 µM
  Minimal inhibitory concentration (MIC): 125 µM (≈ 201 µg/mL)
[11]
  MIC: 31 µM (≈ 49.8 µg/mL)
[12]; HeLa cells, MTT, read-out: Cytotoxic Activity (IC50)
  IC50: 140 µg/mL and 87 µM
Hemolysis assay; at 200 µg/mL (highest tested concentration), 2 h, 37 °C, read-out: hemolysis
  hemolysis at 2 h: 13.4%
Hemolysis assay; at the lowest MIC concentration, read-out: Percentage of hemolysis
  hemolysis at 2 h: 6.5%
Hemolysis assay; peptide concentration at 10% hemolysis / IC50 in HeLa cells, read-out: Selectivity index
  selectivity ratio at 2 h: 0.7

## CCN(CC)c1ccc2c(-c3ccccc3C(=O)N[C@@H](CCCNC(=N)N)C(=O)N[C@@H](CCCNC(=N)N)C(=O)N[C@@H](Cc3c[nH]c4ccccc34)C(=O)N[C@@H](CCC(N)=O)C(=O)N[C@@H](Cc3c[nH]c4ccccc34)C(=O)N[C@@H](CCCNC(=N)N)C(=O)N[C@@H](CCc3ccccc3)C(=O)N[C@@H](CCCCN)C(=O)N[C@@H](CCCCN)C(=O)N[C@@H](CC(C)C)C(=O)NCC(=O)NCCCC[C@H](NC(=O)CNC(=O)[C@H](CC(C)C)NC(=O)[C@H](CCCCN)NC(=O)[C@H](CCCCN)NC(=O)[C@H](CCc3ccccc3)NC(=O)[C@H](CCCNC(=N)N)NC(=O)[C@H](Cc3c[nH]c4ccccc34)NC(=O)[C@H](CCC(N)=O)NC(=O)[C@H](Cc3c[nH]c4ccccc34)NC(=O)[C@H](CCCNC(=N)N)NC(=O)[C@H](CCCNC(=N)N)NC(=O)c3ccccc3-c3c4ccc(=[N+](CC)CC)cc-4oc4cc(N(CC)CC)ccc34)C(=O)NCCCCCC(N)=O)c3ccc(=[N+](CC)CC)cc-3oc2c1 [RhB-2, (RhB-RRWQWR-hF-KKLG)2K-Ahx] (I: RhodamineB-RRWQWR[hPhe]KKLGK[Ahx]-NH2 / II: RhodamineB-RRWQWR[hPhe]KKLG; amide I:12-II:C)
[12]
  IC50: 151 µg/mL and 35 µM
HeLa cells [13]
  cellular localization: internalized and distributed in the cytoplasm
HeLa cells [14]
  morphological changes: appeared smaller, rounded, and contained vacuoles
